Source: patent US12286435B2, “Compound having benzo seven-membered ring structure, preparation method therefor, and use thereof” (BIONNA (BEIJING) MEDICAL TECHNOLOGY CO., LTD., priority 2019, dated 2025)
Where two headings read alike, the source gives them in different places.

How the values were obtained:
BRD4 BD2 protein = BRD4 BD2 protein (Homo sapiens (Human), UniProt O60885); assay: Fluorescence polarization binding affinity (Ki) with BRD4 BD2 protein
BRD4 BD1 protein = BRD4 BD1 protein (Homo sapiens (Human), UniProt O60885); assay: Fluorescence polarization binding affinity (Ki) with BRD4 BD1 protein
[1] = fluorescence polarization, Ki calculated from IC50

Compound	Ki (BRD4 BD2 protein; [1])	Ki (BRD4 BD1 protein; [1])	Ki (BRD4 BD2 protein)	Ki (BRD4 BD1 protein)
CNC(=O)Cc1cccc(NC2CCn3nnc(C)c3-c3ccc(C4=CCNCC4)cc32)c1 (centres unmarked) [LC131]	0.0863 µM	0.835 µM	–	–
Cc1nnn2c1-c1ccc(C3=CCN(C)CC3)cc1C(Nc1ccc(CO)cc1)CC2 (centres unmarked) [RD41, (4-((1-methyl-9-(1-methyl-1,2,3,6-tetrahydropyridin-4-yl)-6,7-dihydro-5H-benzo[c][1,2,3]triazolo[1,5-a]azepin-7-yl)amino)pheny 1)methanol 2,2,2-trifluoroacetate]	0.0551 µM	1.55 µM	–	–
CCCN1CC=C(c2ccc3c(c2)C(Nc2cccc(Cl)c2)CCn2nnc(C)c2-3)CC1 (centres unmarked) [BH120, N-(3-chlorophenyl)-1-methyl-9-(1-propyl-1,2,3,6-tetrahydropyridin-4-yl)-6,7-dihydro-5H-benzo[c][1,2,3]triazolo[1,5-a]azepin-7-amine 2,2,2-trifluoroacetate]	0.0219 µM	0.583 µM	–	–
CCn1cc(-c2ccc3c(c2)C(Nc2ccc(Cl)cc2)CCc2onc(C)c2-3)cn1 (centres unmarked) [LA93, N-(4-chlorophenyl)-1-methyl-8-(1-ethyl-1H-pyrazol-4-yl)-5,6-dihydro-4H-benzo[6,7]cyclohepta[1,2-d]isoxazol-6-amine]	0.0467 µM	0.0763 µM	–	–
CCC(C)N1CC=C(c2ccc3c(c2)C(Nc2ccc(Cl)cc2)CCn2nnc(C)c2-3)CC1 (centres unmarked) [LD17, 9-(1-(sec-butyl)-1,2,3,6-tetrahydropyridin-4-yl)-N-(4-chlorophenyl)-1-methyl-6,7-dihydro-5H-benzo[c][1,2,3]triazolo[1,5-a]azepin-7-amine 2,2,2-trifluoroacetate]	0.051 µM	0.616 µM	–	–
Cc1nnn2c1-c1ccc(C3=CCNCC3)cc1C(Nc1cccc(CO)c1)CC2 (centres unmarked) [RD21, (3-((1-methyl-9-(1,2,3,6-tetrahydropyridin-4-yl)-6,7-dihydro-5H-benzo[c][1,2,3]triazolo[1,5-a]azepin-7-yl)amino)phenyl)methanol 2,2,2-trifluoroacetate]	0.0904 µM	1.53 µM	–	–
Cc1nnn2c1-c1ccc(C3=CCN(C4CCC4)CC3)cc1C(Nc1ccc(F)c(Cl)c1)CC2 (centres unmarked) [BI23, N-(3-chloro-4-fluorophenyl)-9-(1-cyclobutyl-1,2,3,6-tetrahydropyridin-4-yl)-1-methyl-6,7-dihydro-5H-benzo[c][1,2,3]triazolo[1,5-a]azepin-7-amine 2,2,2-trifluoroacetate]	0.0573 µM	1.06 µM	–	–
Cc1nnn2c1-c1ccc(C3=CCN(C(C)C)CC3)cc1C(Nc1cccc(S(C)(=O)=O)c1)CC2 (centres unmarked) [BI60, 9-(1-isopropyl-1,2,3,6-tetrahydropyridin-4-yl)-1-methyl-N-(3-(methylsulfonyl)phenyl)-6,7-dihydro-5H-benzo[c][1,2,3]triazolo[1,5-a]azepin-7-amine 2,2,2-trifluoroacetate]	0.307 µM	4.74 µM	–	–
Cc1nnn2c1-c1ccc(C3=CCN(C4CCCCC4)CC3)cc1C(Nc1cccc(Cl)c1F)CC2 (centres unmarked) [RD178, N-(3-chloro-2-fluorophenyl)-9-(1-cyclohexyl-1,2,3,6-tetrahydropyridin-4-yl)-1-methyl-6,7-dihydro-5H-benzo[c][1,2,3]triazolo[1,5-a]azepin-7-amine 2,2,2-trifluoroacetate]	–	–	0.0327 µM	1.26 µM
COc1ccccc1NC1CCn2nnc(C)c2-c2ccc(C3=CCNCC3)cc21 (centres unmarked) [LC158, N-(2-methoxyphenyl)-1-methyl-9-(1,2,3,6-tetrahydropyridin-4-yl)-6,7-dihydro-5H-benzo[c][1,2,3]triazolo[1,5-a]azepin-7-amine 2,2,2-trifluoroacetate]	0.0416 µM	0.859 µM	–	–
Cc1nnn2c1-c1ccc(C3=CCNCC3)cc1C(Nc1ccc(C#N)cc1)CC2 (centres unmarked) [LC128, 4-((1-methyl-9-(1,2,3,6-tetrahydropyridin-4-yl)-6,7-dihydro-5H-benzo[c][1,2,3]triazolo[1,5-a]azepin-7-yl)amino)benzonitrile 2,2,2-trifluoroacetate]	0.0562 µM	0.467 µM	–	–
Cc1nnn2c1-c1ccc(C3=CCNCC3)cc1C(Nc1ccccc1O)CC2 (centres unmarked) [LC127, 2-((1-methyl-9-(1,2,3,6-tetrahydropyridin-4-yl)-6,7-dihydro-5H-benzo[c][1,2,3]triazolo[1,5-a]azepin-7-yl)amino)phenol 2,2,2-trifluoroacetate]	0.0415 µM	0.793 µM	–	–
Cc1nnn2c1-c1ccc(C3=CCNC3)cc1C(Nc1cccc(O)c1)CC2 (centres unmarked) [BJ183, 3-((9-(2,5-dihydro-1H-pyrrol-3-yl)-1-methyl-6,7-dihydro-5H-benzo[d][1,2,3]triazolo[1,5-a]azepin-7-yl)amino)phenol 2,2,2-trifluoroacetate]	0.045 µM	0.939 µM	–	–
Cc1nnn2c1-c1ccc(-c3cnn(C)c3)cc1C(Nc1cc(F)cc(Cl)c1)CC2 (centres unmarked) [BJ193, N-(3-chloro-5-fluorophenyl)-1-methyl-9-(1-methyl-1H-pyrazol-4-yl)-6,7-dihydro-5H-benzo[c][1,2,3]triazolo[1,5-a]azepin-7-amine]	0.0084 µM	0.0283 µM	–	–
Cc1nnn2c1-c1ccc(C3=CCNCC3)cc1C(Nc1ccc(CC#N)cc1)CC2 (centres unmarked) [RC73, 2-(4-((1-methyl-9-(1,2,3,6-tetrahydropyridin-4-yl)-6,7-dihydro-5H-benzo[c][1,2,3]triazolo[1,5-a]azepin-7-yl)amino)phenyl)acetonitrile 2,2,2-trifluoroacetate]	0.139 µM	2.37 µM	–	–
Cc1nnn2c1-c1ccc(C3=CCNCC3)cc1C(Nc1cc(Cl)ccc1F)CC2 (centres unmarked) [LD08, N-(5-chloro-2-fluorophenyl)-1-methyl-9-(1,2,3,6-tetrahydropyridin-4-yl)-6,7-dihydro-5H-benzo[c][1,2,3]triazolo[1,5-a]azepin-7-amine 2,2,2-trifluoroacetate]	0.0623 µM	1.27 µM	–	–
N-(4-chlorophenyl)-9-(3,6-dihydro-2H-pyran-4-yl)-1-methyl-6,7-dihydro-5H-benzo[c][1,2,3]triazolo[1,5-a]azepin-7-amine [LD31]	–	–	0.0171 µM	0.0391 µM
COc1cccc(NC2CCn3nnc(C)c3-c3ccc(C4=CCNCC4)cc32)c1 (centres unmarked) [LC159, N-(3-methoxyphenyl)-1-methyl-9-(1,2,3,6-tetrahydropyridin-4-yl)-6,7-dihydro-5H-benzo[c][1,2,3]triazolo[1,5-a]azepin-7-amine 2,2,2-trifluoroacetate]	0.0654 µM	2.13 µM	–	–
Cc1nnn2c1-c1ccc(-c3cnn(C)c3)cc1C(Nc1cccc(Cl)c1)CC2 (centres unmarked) [LC186, N-(3-chlorophenyl)-1-methyl-9-(1-methyl-1H-pyrazol-4-yl)-6,7-dihydro-5H-benzo[c][1,2,3]triazolo[1,5-a]azepin-7-amine]	0.00698 µM	0.0313 µM	–	–
Cc1nnn2c1-c1ccc(C3=CCNCC3)cc1C(N(C=O)c1cccc(Cl)c1)CC2 (centres unmarked) [LC193, N-(3-chlorophenyl)-N-(1-methyl-9-(1,2,3,6-tetrahydropyridin-4-yl)-6,7-dihydro-5H-benzo[c][1,2,3]triazolo[1,5-a]azepin-7-yl)formamide 2,2,2-trifluoroacetate]	0.698 µM	> 4 µM	–	–
Cc1nnn2c1-c1ccc(C3=CCN(C4CCC4)CC3)cc1C(Nc1cc(Cl)ccc1F)CC2 (centres unmarked) [BI26, N-(5-chloro-2-fluorophenyl)-9-(1-cyclobutyl-1,2,3,6-tetrahydropyridin-4-yl)-1-methyl-6,7-dihydro-5H-benzo[c][1,2,3]triazolo[1,5-a]azepin-7-amine 2,2,2-trifluoroacetate]	0.0454 µM	0.861 µM	–	–
Cc1nnn2c1-c1ccc(C3=CCN(C(C)C)CC3)cc1[C@@H](Nc1cccc(Cl)c1)CC2 [RE10 (S), (7S)—N-(3-chlorophenyl)-9-(1-isopropyl-1,2,3,6-tetrahydropyridin-4-yl)-1-methyl-6,7-dihydro-5H-benzo[c][1,2,3]triazolo[1,5-a]azepin-7-amine 2,2,2-trifluoroacetate]	0.177 µM	0.884 µM	–	–
Cc1nnn2c1-c1ccc(C3=CCNCC3)cc1C(Nc1cc(F)cc(Cl)c1)CC2 (centres unmarked) [BH06, N-(3-chloro-5-fluorophenyl)-1-methyl-9-(1,2,3,6-tetrahydropyridin-4-yl)-6,7-dihydro-5H-benzo[c][1,2,3]triazolo[1,5-a]azepin-7-amine 2,2,2-trifluoroacetate]	0.0357 µM	0.596 µM	–	–
Cc1nnn2c1-c1ccc(-c3cnn(C)c3)cc1[C@H](Nc1cccc(Cl)c1)CC2 [RE124, (R)—N-(3-chlorophenyl)-1-methyl-9-(1-methyl-1H-pyrazol-4-yl)-6,7-dihydro-5H-benzo[c][1,2,3]triazolo[1,5-a]azepin-7-amine]	< 0.001 µM	0.00992 ± 0.00336 µM	–	–
Cc1nnn2c1-c1ccc(C3=CCN(C(C)C)CC3)cc1C(Nc1cccc(Cl)c1F)CC2 (centres unmarked) [RE29, N-(3-chloro-2-fluorophenyl)-9-(1-isopropyl-1,2,3,6-tetrahydropyridin-4-yl)-1-methyl-6,7-dihydro-5H-benzo[c][1,2,3]triazolo[1,5-a]azepin-7-amine 2,2,2-trifluoroacetate]	0.0658 µM	1.55 µM	–	–
CC(=O)N1CC=C(c2ccc3c(c2)C(Oc2cccc(Cl)c2)CCn2nnc(C)c2-3)CC1 (centres unmarked) [BH81, 1-(4-(7-(3-chlorophenoxy)-1-methyl-6,7-dihydro-5H-benzo[c][1,2,3]triazolo[1,5-a]azepin-9-yl)-3,6-dihydropyridin-1(2H)-yl)ethan-1-one]	0.0311 µM	0.869 µM	–	–
Cc1nnn2c1-c1ccc(C3=CCN(C(=O)C4CC4)CC3)cc1C(Nc1cccc(Cl)c1)CC2 (centres unmarked) [BH123, (4-(7-((3-chlorophenyl)amino)-1-methyl-6,7-dihydro-5H-benzo[c][1,2,3]triazolo[1,5-a]azepin-9-yl)-3,6-dihydropyridin-1 (2H)-yl) (cyclopropyl)methanone]	0.00764 µM	0.0467 µM	–	–
Cc1nnn2c1-c1ccc(C3=CCN(C4CCC4)CC3)cc1C(Nc1cccc(C#N)c1)CC2 (centres unmarked) [BI36, 3-(((9-(1-cyclobutyl-1,2,3,6-tetrahydropyridin-4-yl))-1-methyl-6,7-dihydro-5H-benzo[c][1,2,3]triazolo[1,5-a]azepin-7-yl)amino)benzonitrile 2,2,2-trifluoroacetate]	0.0898 µM	1.85 µM	–	–
